Source: patent US5385885A, “Inhibition of smooth muscle cell proliferation by antistasin and tick anticoagulant peptide” (priority 1991, dated 1995)
Entries after “also recorded” stand apart in the source; their conditions may differ.

Columns and labels:
[1] = system: smooth muscle cell proliferative response to balloon catheter injury; settings: rat model; Powell et al.; cited from earlier work
[2] = system: smooth muscle proliferative responses; settings: doses sufficiently high to prevent platelet adherence and release; Harker et al.; cited from earlier work
[3] = system: smooth muscle cells of rat carotid arteries; settings: site-delivered; after balloon catheterization; Edelman et al.; cited from earlier work
trypsin = biological target: T1, trypsin (Bos taurus, UniProt P00760); settings: Waxman et al.; cited from earlier work
T1 construct: gene PRSS1
T1 sequence (P00760 24-246): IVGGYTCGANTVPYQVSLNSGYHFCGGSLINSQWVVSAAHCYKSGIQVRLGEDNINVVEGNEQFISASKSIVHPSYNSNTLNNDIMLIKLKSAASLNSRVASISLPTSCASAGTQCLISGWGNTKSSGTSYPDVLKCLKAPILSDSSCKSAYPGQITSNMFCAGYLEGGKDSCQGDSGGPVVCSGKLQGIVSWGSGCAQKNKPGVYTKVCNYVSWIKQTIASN

smooth muscle cells [4] = assay: Effect of antistasin and tick anticoagulant peptide on factor Xa induced mitogenesis of smooth muscle cells; assay type: cell-based, rat; settings: FIG. 2
Experimental: Primary smooth muscle cell cultures were prepared from the thoracic and abdominal aorta of 2-3 month old Wistar rats essentially using the procedure of Reilly, C. F. (1990) J. Cell Physiol. 142,342 (1990). After removing as much fat and adherent adventitia as possible with scissors and forceps, the tissue was finely minced, enzymatically dissociated with successive 37° C. incubations in HBSS containing collagenase (Sigma, 0.5 mg/ml for 15 min.), then elastase (Sigma, 0.125 mg/ml for 30 min.) and again collagenase (60 min.). […] Cells were grown in Dulbecco's Minimal Essential Medium (DMEM) containing 10% fetal bovine serum (FBS) with antibiotics. […] Using a monoclonal antibody to alpha actin (Sigma Chemical Company, St. Louis, Mo.), about 60-80% (preparation dependent) of these confluent cells stained positive for this smooth muscle cell marker. After 10 days in culture, the cells were dissociated with trypsinethylene diamine tetraacetate (EDTA), split 1:10 and subcultured in the above medium. At confluence the cells were transferred to DMEM containing 0.1 % FBS for a 24 hour period before using them for assay. […]
(§1) The prepared rat smooth muscle cells were seeded in Falcon 24 multiwell plates (10^5 cells/well) and cultured at 37° C., in a 5% CO2 atmosphere in 1 ml DMEM containing 10% FBS. […] The cells were washed twice with cold phosphate buffered saline (PBS), treated twice with 5% trichloroacetic acid (TCA) for 5 min., dissolved with 0.25N NaOH (0.4 ml) incubated at 37° C. for 60 min., mixed with 5 ml Ecolume (ICN Biomedicals, Costa Mesa, Calif.), and their radioactivity determined in a scintillation counter. […] Smooth muscle cell mitogenic activity produced by exogenous agents is expressed as % relative mitogenic activity which is defined as: [formula] […]
The effects of antistasin and tick anticoagulant peptide on factor Xa induced mitogenesis of smooth muscle cells were tested using the method shown in Example 4. […] At the end of the 24 hour incubation, ^3 H-thymidine incorporation into DNA was monitored and smooth muscle cell mitogenic activity was assessed as described in Example 4.

thrombin = thrombin (Homo sapiens, UniProt P00734); settings: Waxman et al.; cited from earlier work
chymotrypsin = chymotrypsin (Bos taurus, UniProt P00766); settings: Waxman et al.; cited from earlier work
kallikrein = settings: Waxman et al.; cited from earlier work
[5] = biological target: blood coagulation factor Xa (Homo sapiens, UniProt P00742); settings: Waxman et al.; cited from earlier work
smooth muscle cells [6] = assay: Effect of factor Xa inhibitors on human protein S and bovine factor X induced smooth muscle cell mitogenesis; assay type: cell-based, rat; settings: FIG. 3
Experimental: Primary smooth muscle cell cultures were prepared from the thoracic and abdominal aorta of 2-3 month old Wistar rats essentially using the procedure of Reilly, C. F. (1990) J. Cell Physiol. 142,342 (1990). After removing as much fat and adherent adventitia as possible with scissors and forceps, the tissue was finely minced, enzymatically dissociated with successive 37° C. incubations in HBSS containing collagenase (Sigma, 0.5 mg/ml for 15 min.), then elastase (Sigma, 0.125 mg/ml for 30 min.) and again collagenase (60 min.). […] Cells were grown in Dulbecco's Minimal Essential Medium (DMEM) containing 10% fetal bovine serum (FBS) with antibiotics. […]
as §1

Factor VIIa = biological target: T2, Factor VIIa (Homo sapiens, UniProt P08709); settings: Waxman et al.; cited from earlier work
T2 sequence (P08709 213-466 limits assumed): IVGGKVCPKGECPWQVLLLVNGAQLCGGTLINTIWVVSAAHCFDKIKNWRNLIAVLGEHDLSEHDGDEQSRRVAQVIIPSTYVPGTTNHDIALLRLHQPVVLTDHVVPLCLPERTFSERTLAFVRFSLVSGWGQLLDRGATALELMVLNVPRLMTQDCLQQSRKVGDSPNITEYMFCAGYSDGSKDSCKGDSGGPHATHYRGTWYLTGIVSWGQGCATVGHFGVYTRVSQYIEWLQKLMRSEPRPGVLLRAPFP
T2 sequence (P08709 61-212 partner limits assumed): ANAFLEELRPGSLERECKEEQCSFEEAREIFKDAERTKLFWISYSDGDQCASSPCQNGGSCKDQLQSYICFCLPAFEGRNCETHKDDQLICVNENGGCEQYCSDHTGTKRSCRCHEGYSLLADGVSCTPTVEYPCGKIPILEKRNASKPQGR

blood coagulation factor Xa, sequence (P00742 235-488 limits assumed): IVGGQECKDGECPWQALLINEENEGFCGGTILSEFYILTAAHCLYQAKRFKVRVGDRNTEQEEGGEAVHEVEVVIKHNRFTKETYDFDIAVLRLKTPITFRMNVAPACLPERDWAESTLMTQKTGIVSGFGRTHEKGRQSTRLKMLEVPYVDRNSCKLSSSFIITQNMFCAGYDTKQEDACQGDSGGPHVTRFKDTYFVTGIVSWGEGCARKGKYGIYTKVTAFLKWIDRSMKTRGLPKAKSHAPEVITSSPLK
blood coagulation factor Xa, sequence (P00742 41-179 partner limits assumed): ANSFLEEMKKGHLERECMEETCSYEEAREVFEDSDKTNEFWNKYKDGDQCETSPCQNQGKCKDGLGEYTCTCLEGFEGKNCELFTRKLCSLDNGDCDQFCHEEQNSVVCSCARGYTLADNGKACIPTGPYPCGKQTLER

CCOC(=O)[C@H](CCc1ccccc1)N[C@H]1CCCN2CCC[C@@H](C(=O)O)N2C1=O [cilazapril]
Smooth muscle cell proliferative response to balloon catheter injury [1]: specifically inhibits

OCCN(CCO)c1nc(N2CCCCC2)c2nc(N(CCO)CCO)nc(N3CCCCC3)c2n1 [dipyridamole]
Smooth muscle proliferative responses [2]: prevented

heparin
Proliferation of smooth muscle cells [3]: effectively diminished

tick anticoagulant peptide (YNRLCIKPRDWIDECDSNEGGERAYFRNGKGGCDSFWICPEDHTGADYYSSYRDCFNACI; UniProt P17726 1-60, looked up) [TAP, 60-amino acid peptide isolated from extracts of the soft tick Ornithodoros moubata]
Effect on trypsin (trypsin): no effect | Relative mitogenic activity above control (smooth muscle cells [4]; 10 nM fXa and 3-25 nM TAP): about 25% | Relative mitogenic activity above control (smooth muscle cells [4]; 10 nM fXa and 50-62 nM TAP): about 9% | Relative mitogenic activity above control (smooth muscle cells [4]; 10 nM fXa with 100-250 nM TAP): near zero | Effect on thrombin (thrombin): no effect | Effect on chymotrypsin (chymotrypsin): no effect | Effect on kallikrein (kallikrein): no effect | Inhibition of blood factor Xa [5]: highly specific inhibitor; also recorded: potent inhibitor | Inhibition of relative mitogenic activity of bovine factor X (smooth muscle cells [6]; 10 nM bovine factor X with 100 nM TAP): not significantly inhibited | Inhibition of relative mitogenic activity of protein S (smooth muscle cells [6]; protein S with 250 nM TAP): abolished | Effect on Factor VIIa (Factor VIIa): no effect
